Experimental data from patent publication US8658791B2, “2-substituted-6-amino-5-alkyl, alkenyl or alkynyl-4-pyrimidinecarboxylic acids and 6-substituted-4-amino-3-alkyl, alkenyl or alkynyl picolinic acids and their use as herbicides” (Dow AgroSciences, LLC, priority 2007, dated 2014).

Columns and labels:
[1] = tested on: lambsquarter (Chenopodium album); test: General postemergence herbicidal activity, CHEAL; assay type: in vivo; settings: Chenopodium album, post-emergence, 336 h, postemergence spray, visual score after 14 days, 0 = no injury, 100 = complete kill, read-out: Post-emergent Weed Control CHEAL; for pest or weed control at 70 g/ha: 70 g ai/ha; for pest or weed control at 140 g/ha: 140 g ai/ha; for pest or weed control at 280 g/ha: 280 g ai/ha
Summary of the method: (§1)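 Greenhouse plants at first or second true leaf stage sprayed postemergence at 187 L/ha with compound in acetone/DMSO/water mixture with crop oil concentrate and surfactant. Rates ran from a high rate through 1/2X to 1/16X. Visual injury versus untreated plants scored 0–100% after 14 days.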

[2] = tested on: velvetleaf (Abutilon theophrasti); test: General postemergence herbicidal activity, ABUTH; assay type: in vivo; settings: Abutilon theophrasti, post-emergence, 336 h, postemergence spray, visual score after 14 days, 0 = no injury, 100 = complete kill, read-out: Post-emergent Weed Control ABUTH; for pest or weed control at 70 g/ha: 70 g ai/ha; for pest or weed control at 140 g/ha: 140 g ai/ha; for pest or weed control at 280 g/ha: 280 g ai/ha
Summary of the method: as §1

[3] = tested on: wild poinsettia (Euphorbia heterophylla); test: General postemergence herbicidal activity, EPHHL; assay type: in vivo; settings: Euphorbia heterophylla, post-emergence, 336 h, postemergence spray, visual score after 14 days, 0 = no injury, 100 = complete kill, read-out: Post-emergent Weed Control EPHHL; for pest or weed control at 70 g/ha: 70 g ai/ha; for pest or weed control at 140 g/ha: 140 g ai/ha; for pest or weed control at 280 g/ha: 280 g ai/ha
Summary of the method: as §1

[4] = tested on: barnyardgrass (Echinochloa crus-galli); test: General postemergence herbicidal activity, ECHCG; assay type: in vivo; settings: Echinochloa crus-galli, post-emergence, 336 h, postemergence spray, visual score after 14 days, 0 = no injury, 100 = complete kill, read-out: Post-emergent Weed Control ECHCG; for pest or weed control at 70 g/ha: 70 g ai/ha; for pest or weed control at 140 g/ha: 140 g ai/ha; for pest or weed control at 280 g/ha: 280 g ai/ha
Summary of the method: as §1

rice (Oryza sativa) [5] = test: General postemergence herbicidal activity, ORYSA; assay type: in vivo; settings: Oryza sativa, post-emergence, 336 h, postemergence spray, visual score after 14 days, 0 = no injury, 100 = complete kill, read-out: Post-emergent Weed Control ORYSA; for plant injury at 70 g/ha: 70 g ai/ha; for plant injury at 140 g/ha: 140 g ai/ha; for plant injury at 280 g/ha: 280 g ai/ha
Summary of the method: as §1

[6] = tested on: lambsquarter (Chenopodium album); test: General preemergence herbicidal activity, CHEAL; assay type: in vivo; settings: applied to soil surface, visual score after 20-22 days, 0 = no injury, 100 = complete kill or no emergence, read-out: Pre-emergent Weed Control CHEAL; for pest or weed control at 140 g/ha: 140 g ai/ha
From the text: (§2) Seeds of the desired test plant species were planted in a soil matrix prepared by mixing a loam soil (43 percent silt, 19 percent clay, and 38 percent sand, with a pH of about 8.1 and an organic matter content of about 1.5 percent) and sand in a 70 to 30 ratio. The soil matrix was contained in plastic pots with a surface area of 127 square centimeters. When required to ensure good germination and healthy plants, a fungicide treatment and/or other chemical or physical treatment was applied. A weighed amount, determined by the highest rate to be tested, of each test compound was placed in a 25 mL glass vial and was dissolved in 6 mL of a 97:3 v/v (volume/volume) mixture of acetone and DMSO to obtain concentrated stock solutions. […] The stock solutions obtained were diluted with 18 mL of a 0.1% v/v aqueous solution of Tween® 20 surfactant to obtain spray solutions containing the highest application rate. Additional application rates were obtained by serial dilution of 12 mL of the high rate solution into a solution containing 3 mL of 97:3 v/v mixture of acetone and DMSO and 9 mL of the 0.1% v/v aqueous solution of Tween® 20 surfactant to obtain 1/2X, 1/4X, 1/8X and 1/16X rates of the high rate. Compound requirements are based upon a 12 mL application volume at a rate of 187 L/ha. Formulated compounds were applied to the soil surface with an overhead Mandel track sprayer equipped with a […] nozzles calibrated to deliver 187 L/ha over an application area of 0.503 square meters at a spray height of 18 inches (43 cm) above the soil surface. Control pots were sprayed in the same manner with the solvent blank. The treated pots and control pots were placed in a greenhouse maintained with an approximate 15 hour photoperiod and temperatures of about 23-29° C. during the day and 22-28° C. during the night. Nutrients and water were added on a regular basis and supplemental lighting was provided with overhead metal halide 1000-Watt lamps as necessary. The water was added by top-irrigation. After 20-22 days, the condition of the test plants that germinated and grew as compared with that of the untreated plants that emerged and grew was determined visually and scored on a scale of 0 to 100 percent where 0 corresponds to no injury and 100 corresponds to complete kill or no emergence.

[7] = tested on: velvetleaf (Abutilon theophrasti); test: General preemergence herbicidal activity, ABUTH; assay type: in vivo; settings: applied to soil surface, visual score after 20-22 days, 0 = no injury, 100 = complete kill or no emergence, read-out: Pre-emergent Weed Control ABUTH; for pest or weed control at 140 g/ha: 140 g ai/ha
From the text: as §2

[8] = tested on: wild poinsettia (Euphorbia heterophylla); test: General preemergence herbicidal activity, EPHHL; assay type: in vivo; settings: applied to soil surface, visual score after 20-22 days, 0 = no injury, 100 = complete kill or no emergence, read-out: Pre-emergent Weed Control EPHHL; for pest or weed control at 140 g/ha: 140 g ai/ha
From the text: as §2

[9] = tested on: barnyardgrass (Echinochloa crus-galli); test: General preemergence herbicidal activity, ECHCG; assay type: in vivo; settings: applied to soil surface, visual score after 20-22 days, 0 = no injury, 100 = complete kill or no emergence, read-out: Pre-emergent Weed Control ECHCG; for pest or weed control at 140 g/ha: 140 g ai/ha
From the text: as §2

rice (Oryza sativa) [10] = test: General preemergence herbicidal activity, ORYSA; assay type: in vivo; settings: applied to soil surface, visual score after 20-22 days, 0 = no injury, 100 = complete kill or no emergence, read-out: Pre-emergent Weed Control ORYSA; for plant injury at 140 g/ha: 140 g ai/ha
From the text: as §2

SMILES: C=Cc1c(N)nc(-c2ccc(Cl)c(F)c2F)nc1C(=O)OC [Compound 11, 6-Amino-2-(4-chloro-2,3-difluorophenyl)-5-vinyl-pyrimidine-4-carboxylic acid methyl ester]
- pest or weed control at 70 g/ha [1]: 100%
- pest or weed control at 70 g/ha [2]: 100%
- pest or weed control at 70 g/ha [3]: 100%
- pest or weed control at 70 g/ha [4]: 90%
- plant injury at 70 g/ha (rice (Oryza sativa) [5]): 0%
- pest or weed control at 70 g/ha ([6]; 70 g ai/ha): 100%
- pest or weed control at 70 g/ha ([7]; 70 g ai/ha): 100%
- pest or weed control at 70 g/ha ([8]; 70 g ai/ha): 100%
- pest or weed control at 70 g/ha ([9]; 70 g ai/ha): 100%
- plant injury at 70 g/ha (rice (Oryza sativa) [10]; 70 g ai/ha): 95%

SMILES: CCc1c(N)nc(-c2ccc(Cl)c(OC)c2F)nc1C(=O)OC [Compound 21, 6-Amino-2-(4-chloro-2-fluoro-3-methoxyphenyl)-5-ethyl-pyrimidine-4-carboxylic acid methyl ester]
- pest or weed control at 140 g/ha [1]: 100%
- pest or weed control at 140 g/ha [2]: 85%
- pest or weed control at 140 g/ha [3]: 100%
- pest or weed control at 140 g/ha [4]: 70%
- plant injury at 140 g/ha (rice (Oryza sativa) [5]): 0%
- pest or weed control at 140 g/ha [6]: 40%
- pest or weed control at 140 g/ha [7]: 60%
- pest or weed control at 140 g/ha [8]: 80%
- pest or weed control at 140 g/ha [9]: 0%
- plant injury at 140 g/ha (rice (Oryza sativa) [10]): 0%

SMILES: C=Cc1c(N)nc(-c2ccc(Cl)cc2F)nc1C(=O)O [Compound 42, 6-Amino-2-(4-chloro-2-fluorophenyl)-5-vinylpyrimidine-4-carboxylic acid]
- pest or weed control at 140 g/ha [6]: 100%
- pest or weed control at 140 g/ha [7]: 100%
- pest or weed control at 140 g/ha [8]: 100%
- pest or weed control at 140 g/ha [9]: 30%
- plant injury at 140 g/ha (rice (Oryza sativa) [10]): 10%
- melting point: 167 to 169 °C

SMILES: C=Cc1c(N)nc(-c2ccc(Cl)cc2)nc1C(=O)O [Compound 43, 6-Amino-2-(4-chlorophenyl)-5-vinylpyrimidine-4-carboxylic acid]
- pest or weed control at 280 g/ha [1]: 100%
- pest or weed control at 280 g/ha [2]: 90%
- pest or weed control at 280 g/ha [3]: 100%
- pest or weed control at 280 g/ha [4]: 90%
- plant injury at 280 g/ha (rice (Oryza sativa) [5]): 35%
- pest or weed control at 140 g/ha [6]: 100%
- pest or weed control at 140 g/ha [7]: 100%
- pest or weed control at 140 g/ha [8]: 100%
- pest or weed control at 140 g/ha [9]: 90%
- plant injury at 140 g/ha (rice (Oryza sativa) [10]): 90%

SMILES: C=Cc1c(N)nc(-c2ccc(Cl)c(OC)c2)nc1C(=O)O [Compound 45, 6-Amino-2-(4-chloro-3-methoxyphenyl)-5-vinylpyrimidine-4-carboxylic acid]
- pest or weed control at 280 g/ha [1]: 95%
- pest or weed control at 280 g/ha [2]: 0%
- pest or weed control at 280 g/ha [3]: 60%
- pest or weed control at 280 g/ha [4]: 60%
- plant injury at 280 g/ha (rice (Oryza sativa) [5]): 0%
- pest or weed control at 140 g/ha [6]: 60%
- pest or weed control at 140 g/ha [7]: 0%
- pest or weed control at 140 g/ha [8]: 0%
- pest or weed control at 140 g/ha [9]: 10%
- plant injury at 140 g/ha (rice (Oryza sativa) [10]): 30%

SMILES: C/C=C\c1c(N)nc(-c2ccc(Cl)c(OC)c2F)nc1C(=O)O [Compound 55, 6-Amino-2-(4-chloro-2-fluoro-3-methoxyphenyl)-5-((Z)-propenyl)pyrimidine-4-carboxylic acid]
- pest or weed control at 70 g/ha [1]: 100%
- pest or weed control at 70 g/ha [2]: 100%
- pest or weed control at 70 g/ha [3]: 100%
- pest or weed control at 70 g/ha [4]: 100%
- plant injury at 70 g/ha (rice (Oryza sativa) [5]): 15%
- pest or weed control at 140 g/ha [6]: 100%
- pest or weed control at 140 g/ha [7]: 100%
- pest or weed control at 140 g/ha [8]: 100%
- pest or weed control at 140 g/ha [9]: 60%
- plant injury at 140 g/ha (rice (Oryza sativa) [10]): 30%

SMILES: C=Cc1c(N)cc(-c2ccc(Cl)c(OC)c2F)nc1C(=O)O [Compound 59, 4-Amino-6-(4-chloro-2-fluoro-3-methoxyphenyl)-3-vinylpyridine-2-carboxylic acid]
- pest or weed control at 140 g/ha [1]: 100%
- pest or weed control at 140 g/ha [2]: 100%
- pest or weed control at 140 g/ha [3]: 100%
- pest or weed control at 140 g/ha [4]: 100%
- plant injury at 140 g/ha (rice (Oryza sativa) [5]): 0%
- pest or weed control at 140 g/ha [6]: 100%
- pest or weed control at 140 g/ha [7]: 100%
- pest or weed control at 140 g/ha [8]: 100%
- pest or weed control at 140 g/ha [9]: 100%
- plant injury at 140 g/ha (rice (Oryza sativa) [10]): 0%
